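These data come from cells grown in 96-well plates and exposed to compound for 48 hours at five concentrations. Abbreviation: GI50, concentration required for 50% inhibition of growth. Definition used: TGI = concentration required for complete inhibition of growth.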
Legend:
Assay in all cases: DTP human tumour cell line panel, 48 h
786-0 renal = system: 786-0 renal
BT-549 breast = system: BT-549 breast
CAKI-1 renal = system: CAKI-1 renal
KM12 colon = system: KM12 colon
MALME-3M melanoma = system: MALME-3M melanoma
NCI-H460 lung = system: NCI-H460 lung
OVCAR-8 ovarian = system: OVCAR-8 ovarian
SF-295 CNS = system: SF-295 CNS
UACC-62 melanoma = system: UACC-62 melanoma
M14 melanoma = system: M14 melanoma

SMILES	TGI (786-0 renal)	TGI (BT-549 breast)	TGI (CAKI-1 renal)	TGI (KM12 colon)	TGI (MALME-3M melanoma)	TGI (NCI-H460 lung)	TGI (OVCAR-8 ovarian)	TGI (SF-295 CNS)	TGI (UACC-62 melanoma)	TGI (M14 melanoma)	GI50 (786-0 renal)	GI50 (CAKI-1 renal)	GI50 (KM12 colon)	GI50 (M14 melanoma)	GI50 (MALME-3M melanoma)	GI50 (NCI-H460 lung)	GI50 (OVCAR-8 ovarian)	GI50 (SF-295 CNS)	GI50 (UACC-62 melanoma)	GI50 (BT-549 breast)
COc1c(-c2ccc(O)c(O)c2)oc2c(O)c(O)cc(O)c2c1=O	> 100 µM	> 100 µM	> 100 µM	> 100 µM	> 100 µM	> 100 µM	> 100 µM	> 100 µM	> 100 µM	–	–	–	–	–	–	–	–	–	–	–
COc1ccc(/C=c2/sc3n(c2=O)NC2(CCC(C)CC2)NN=3)cc1 (stereo not given)	> 100 µM	–	> 100 µM	> 100 µM	> 100 µM	> 100 µM	> 100 µM	> 100 µM	> 100 µM	> 100 µM	–	–	–	–	–	–	–	–	–	–
COC(=O)C1C=NNC1C(=O)OC (stereo not given)	> 100 µM	–	> 100 µM	> 100 µM	> 100 µM	> 100 µM	> 100 µM	> 100 µM	> 100 µM	> 100 µM	–	–	–	–	–	–	–	–	–	–
Cc1ccc(C2=Nc3c(N)ncnc3NC(c3ccc4c(c3)OCO4)C2)cc1 (stereo not given)	> 100 µM	–	19.1 µM	15 µM	26.8 µM	12.8 µM	> 100 µM	21.7 µM	> 100 µM	> 100 µM	> 100 µM	1.44 µM	3.79 µM	> 100 µM	3.01 µM	3.59 µM	13.5 µM	3.45 µM	4.09 µM	–
Cc1cc(C(=O)O)c(C)n1-c1cccc(C(=O)O)c1	> 100 µM	> 100 µM	–	> 100 µM	> 100 µM	> 100 µM	> 100 µM	> 100 µM	> 100 µM	> 100 µM	> 100 µM	–	> 100 µM	> 100 µM	> 100 µM	> 100 µM	> 100 µM	> 100 µM	> 100 µM	> 100 µM
CC(/C=C/c1ccccc1)=N\NC(N)=S	> 100 µM	> 100 µM	> 100 µM	> 100 µM	> 100 µM	> 100 µM	> 100 µM	61.2 µM	–	88.4 µM	–	–	–	–	–	–	–	–	–	–
O=C1Nc2ccccc2/C1=C\c1nc(C2CCN(S(=O)(=O)c3ccc(F)cc3)CC2)n2ccccc12	6.71 µM	8.48 µM	> 100 µM	–	–	> 100 µM	6.77 µM	11.2 µM	–	> 100 µM	2.37 µM	1.73 µM	–	> 100 µM	–	9.97 µM	1.39 µM	2.25 µM	–	1.85 µM
Oc1ccc(CCNCc2cc3c(cc2Br)OCO3)cc1	> 100 µM	> 100 µM	–	–	> 100 µM	> 100 µM	> 100 µM	> 100 µM	> 100 µM	> 100 µM	–	–	–	–	–	–	–	–	–	–
OCCNCCCOc1ccc2ncnc(Nc3ccc(Oc4cccc(C(F)(F)F)c4)c(Cl)c3)c2c1	3.03 µM	4.25 µM	11.6 µM	3.26 µM	3.24 µM	3.31 µM	5.83 µM	3.24 µM	3.31 µM	–	1.62 µM	2.99 µM	1.77 µM	–	1.66 µM	1.73 µM	2.24 µM	1.79 µM	1.79 µM	1.82 µM
Cc1cccc(N2C(=O)C(=O)C(c3nc4ccccc4s3)/C(=N/NC(=S)NN)C2=O)c1C (stereo not given)	> 100 µM	–	> 100 µM	> 100 µM	> 100 µM	> 100 µM	> 100 µM	> 100 µM	> 100 µM	> 100 µM	–	–	–	–	–	–	–	–	–	–
CC(CNCCCNCCNCCCNCO)[N+](=O)[O-] (stereo not given)	29.3 µM	–	18.6 µM	29.7 µM	4.22 µM	32.3 µM	27.9 µM	> 100 µM	29.9 µM	23.6 µM	–	–	–	–	–	–	–	–	–	–
C[C@]1(Cn2ccnn2)C(C(=O)O)N2C(=O)CC2S1(=O)=O (stereo not given in full)	> 100 µM	> 100 µM	> 100 µM	> 100 µM	> 100 µM	> 100 µM	–	> 100 µM	> 100 µM	> 100 µM	> 100 µM	> 100 µM	> 100 µM	> 100 µM	> 100 µM	> 100 µM	–	> 100 µM	> 100 µM	> 100 µM
CC1=C(C(=O)Nc2ccc([N+](=O)[O-])cc2)C(c2ccc3c(c2)OCO3)C(C(=O)Nc2ccc([N+](=O)[O-])cc2)=C(C)N1	> 100 µM	–	> 100 µM	24.9 µM	> 100 µM	> 100 µM	27.9 µM	> 100 µM	59.4 µM	50.4 µM	–	–	–	–	–	–	–	–	–	–
CC(=O)C1=C(C)N(C)C2(O)C=CC(=O)C3=C(O)c4ccccc4C(=O)C312 (stereo not given)	7.36 µM	27.9 µM	9.65 µM	–	4.01 µM	42 µM	> 100 µM	19.6 µM	14 µM	7.87 µM	2.59 µM	3.52 µM	–	2.81 µM	1.51 µM	10.6 µM	24 µM	5.03 µM	3.89 µM	13.6 µM
